{"source": "paper PMC8636460", "about": "“Pharmacological and Biophysical Characteristics of Picrotoxin-Resistant, δSubunit-Containing GABAA Receptors” (Frontiers in Synaptic Neuroscience, 2021)", "key": {"[1]": {"target": "T1, α4β2δ GABAAR (human α4, rat β2, rat δ with N-terminal FLAG) (Rattus norvegicus (beta2, delta); Homo sapiens (alpha4), UniProt P18506+P48169+P63138, P18506:T285Y)", "T1 construct": "gene GABRA4; free full subunits transiently transfected (cDNA α:β:δ 1:1:2) in mouse Neuro-2a cells", "T1 sequence (P48169 36-554)": "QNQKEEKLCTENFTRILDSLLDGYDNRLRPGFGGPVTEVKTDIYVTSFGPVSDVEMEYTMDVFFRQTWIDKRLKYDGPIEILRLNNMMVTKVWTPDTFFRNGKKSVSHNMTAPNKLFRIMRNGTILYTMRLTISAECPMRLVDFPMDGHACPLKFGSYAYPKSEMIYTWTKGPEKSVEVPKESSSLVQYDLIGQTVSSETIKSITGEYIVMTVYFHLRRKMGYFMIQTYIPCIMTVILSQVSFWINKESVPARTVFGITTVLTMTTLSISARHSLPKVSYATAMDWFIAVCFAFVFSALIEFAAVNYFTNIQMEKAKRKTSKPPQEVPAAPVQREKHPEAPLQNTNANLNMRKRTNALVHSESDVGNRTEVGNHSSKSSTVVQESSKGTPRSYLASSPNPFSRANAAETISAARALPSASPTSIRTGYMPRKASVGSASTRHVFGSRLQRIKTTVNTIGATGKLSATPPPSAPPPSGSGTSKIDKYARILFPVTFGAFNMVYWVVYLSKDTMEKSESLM", "T1 sequence (P63138 26-474)": "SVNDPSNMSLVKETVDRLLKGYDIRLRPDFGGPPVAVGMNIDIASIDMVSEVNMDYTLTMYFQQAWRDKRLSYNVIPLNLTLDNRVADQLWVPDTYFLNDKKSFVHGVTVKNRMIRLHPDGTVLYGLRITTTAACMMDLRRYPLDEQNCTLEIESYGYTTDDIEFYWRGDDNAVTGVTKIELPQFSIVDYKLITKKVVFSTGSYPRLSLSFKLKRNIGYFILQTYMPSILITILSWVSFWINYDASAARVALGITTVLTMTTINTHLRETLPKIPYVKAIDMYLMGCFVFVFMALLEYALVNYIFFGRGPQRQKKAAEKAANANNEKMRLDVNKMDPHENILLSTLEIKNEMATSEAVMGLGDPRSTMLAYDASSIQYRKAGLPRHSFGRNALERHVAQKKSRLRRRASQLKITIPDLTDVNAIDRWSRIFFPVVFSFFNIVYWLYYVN", "assay": "whole-cell patch clamp in transfected N2a cells, agonist concentration response, Hill fit", "type": "cell-based"}, "[2]": {"target": "T2, α4β2δ GABAAR (human α4, rat β2, rat δ with N-terminal FLAG) (Rattus norvegicus (beta2, delta); Homo sapiens (alpha4), UniProt P18506+P48169+P63138)", "T2 construct": "gene GABRA4; free full subunits transiently transfected (cDNA α:β:δ 1:1:2) in mouse Neuro-2a cells", "T2 sequence (P63138 26-474)": "as above", "T2 sequence (P48169 36-554)": "as the sequence (P48169 36-554) above", "T2 sequence (P18506 25-449)": "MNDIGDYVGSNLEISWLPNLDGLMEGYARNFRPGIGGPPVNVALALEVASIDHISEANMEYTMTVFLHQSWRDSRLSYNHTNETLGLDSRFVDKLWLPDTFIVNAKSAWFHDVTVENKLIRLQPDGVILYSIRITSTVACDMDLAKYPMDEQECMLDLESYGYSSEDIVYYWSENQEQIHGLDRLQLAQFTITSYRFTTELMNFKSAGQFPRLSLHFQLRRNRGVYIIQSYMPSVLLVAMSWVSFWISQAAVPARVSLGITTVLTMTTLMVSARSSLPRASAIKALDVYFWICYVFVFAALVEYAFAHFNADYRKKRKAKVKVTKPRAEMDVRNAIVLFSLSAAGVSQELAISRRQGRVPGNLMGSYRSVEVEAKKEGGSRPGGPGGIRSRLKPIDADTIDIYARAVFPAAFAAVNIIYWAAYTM", "assay": "whole-cell patch clamp in transfected N2a cells, agonist concentration response, Hill fit", "type": "cell-based"}}, "data": [{"smiles": "Oc1noc2c1CCNC2", "note": "[THIP, 4,5,6,7-tetrahydroisoxazolo[5,4-c]pyridin-3-ol]", "values": [{"measurement": "EC50", "setting": "[1]", "value": 16.7, "unit": "µM"}, {"measurement": "EC50", "setting": "[2]", "value": 38.7, "unit": "µM"}]}]}
